Tests used:
[1] = target: Serine/threonine-protein kinase MAK (Homo sapiens) (UniProt P20794); conditions: Compound concentration 1000.0 nM
[2] = target: Ephrin type-B receptor 1 (Homo sapiens) (UniProt P54762); conditions: Compound concentration 1000.0 nM
[3] = target: Dual specificity tyrosine-phosphorylation-regulated kinase 2 (Homo sapiens) (UniProt Q92630); conditions: Compound concentration 1000.0 nM
[4] = target: Serine/threonine-protein kinase tousled-like 2 (Homo sapiens) (UniProt Q86UE8); conditions: Compound concentration 1000.0 nM
[5] = target: Receptor-interacting serine/threonine-protein kinase 4 (Homo sapiens) (UniProt P57078); conditions: Compound concentration 1000.0 nM
[6] = target: Fibroblast growth factor receptor 4 (Homo sapiens) (UniProt P22455); conditions: Compound concentration 1000.0 nM
[7] = tested on: Tyrosine-protein kinase ABL1 (Homo sapiens), P00519 [Q252H]; conditions: Compound concentration 1000.0 nM
[8] = tested on: Hepatocyte growth factor receptor (Homo sapiens), P08581 [M1250T]; conditions: Compound concentration 1000.0 nM
[9] = target: Alpha-1D adrenergic receptor (Homo sapiens) (UniProt P25100); conditions: Compound concentration 10.0 uM
[10] = target: Serine/threonine-protein kinase DCLK2 (Homo sapiens) (UniProt Q8N568); conditions: Compound concentration 1000.0 nM
[11] = target: Casein kinase I isoform gamma-1 (Homo sapiens) (UniProt Q9HCP0); conditions: Compound concentration 1000.0 nM
[12] = target: Mitogen-activated protein kinase kinase kinase 4 (Homo sapiens) (UniProt Q9Y6R4); conditions: Compound concentration 1000.0 nM
[13] = target: RAC-gamma serine/threonine-protein kinase (Homo sapiens) (UniProt Q9Y243); conditions: Compound concentration 1000.0 nM
[14] = target: Serine/threonine-protein kinase WNK4 (Homo sapiens) (UniProt Q96J92); conditions: Compound concentration 1000.0 nM
[15] = target: Interleukin-1 receptor-associated kinase 4 (Homo sapiens) (UniProt Q9NWZ3); conditions: Compound concentration 1000.0 nM
[16] = target: 5-hydroxytryptamine receptor 1B (Homo sapiens) (UniProt P28222); conditions: Compound concentration 10.0 uM
[17] = target: Calcium/calmodulin-dependent protein kinase type II subunit delta (Homo sapiens) (UniProt Q13557); conditions: Compound concentration 1000.0 nM
[18] = target: Ribosomal protein S6 kinase alpha-4 (Homo sapiens) (UniProt O75676); conditions: Compound concentration 1000.0 nM
[19] = target: D(2) dopamine receptor (Homo sapiens) (UniProt P14416); conditions: Compound concentration 10.0 uM
[20] = target: Insulin receptor (Homo sapiens) (UniProt P06213); conditions: Compound concentration 1000.0 nM
[21] = target: Mitogen-activated protein kinase kinase kinase 19 (Homo sapiens) (UniProt Q56UN5); conditions: Compound concentration 1000.0 nM
[22] = target: Myosin-IIIb (Homo sapiens) (UniProt Q8WXR4); conditions: Compound concentration 1000.0 nM
[23] = target: Ephrin type-B receptor 6 (Homo sapiens) (UniProt O15197); conditions: Compound concentration 1000.0 nM
[24] = target: Serine/threonine-protein kinase MARK1 (Homo sapiens) (UniProt Q9P0L2); conditions: Compound concentration 1000.0 nM
[25] = target: Casein kinase I isoform delta (Homo sapiens) (UniProt P48730); conditions: Compound concentration 1000.0 nM
[26] = target: Ribosomal protein S6 kinase alpha-3 (Homo sapiens) (UniProt P51812); conditions: Compound concentration 1000.0 nM
[27] = target: Serine/threonine-protein kinase 32B (Homo sapiens) (UniProt Q9NY57); conditions: Compound concentration 1000.0 nM
[28] = tested on: Tyrosine-protein kinase ABL1 (Homo sapiens), P00519 [H396P]; conditions: Compound concentration 1000.0 nM
[29] = tested on: Receptor-type tyrosine-protein kinase FLT3 (Homo sapiens), P36888 [R834Q]; conditions: Compound concentration 1000.0 nM
[30] = target: Serine/threonine-protein kinase NIM1 (Homo sapiens) (UniProt Q8IY84); conditions: Compound concentration 1000.0 nM
[31] = target: Serine/threonine-protein kinase tousled-like 1 (Homo sapiens) (UniProt Q9UKI8); conditions: Compound concentration 1000.0 nM
[32] = target: Serine/threonine-protein kinase Nek10 (Homo sapiens) (UniProt Q6ZWH5); conditions: Compound concentration 1000.0 nM
[33] = target: Serine/threonine-protein kinase Chk1 (Homo sapiens) (UniProt O14757); conditions: Compound concentration 1000.0 nM
[34] = target: Ribosomal protein S6 kinase alpha-2 (Homo sapiens) (UniProt Q15349); conditions: Compound concentration 1000.0 nM
[35] = target: Mitogen-activated protein kinase 10 (Homo sapiens) (UniProt P53779); conditions: Compound concentration 1000.0 nM
[36] = tested on: ALK tyrosine kinase receptor (Homo sapiens), Q9UM73 [L1196M]; conditions: Compound concentration 1000.0 nM
[37] = target: Receptor-type tyrosine-protein kinase FLT3 (Homo sapiens, UniProt P36888); conditions: Compound concentration 1000.0 nM
[38] = target: Activated CDC42 kinase 1 (Homo sapiens) (UniProt Q07912); conditions: Compound concentration 1000.0 nM
[39] = target: SRSF protein kinase 1 (Homo sapiens) (UniProt Q96SB4); conditions: Compound concentration 1000.0 nM
[40] = tested on: Epidermal growth factor receptor (Homo sapiens), P00533 [UNDEFINED MUTATION]; conditions: Compound concentration 1000.0 nM
[41] = target: Cyclin-dependent kinase 17 (Homo sapiens) (UniProt Q00537); conditions: Compound concentration 1000.0 nM
[42] = tested on: Serine/threonine-protein kinase B-raf (Homo sapiens), P15056 [V600E]; conditions: Compound concentration 1000.0 nM
[43] = target: Serine/threonine-protein kinase Chk2 (Homo sapiens) (UniProt O96017); conditions: Compound concentration 1000.0 nM
[44] = target: Mu-type opioid receptor (Homo sapiens) (UniProt P35372); conditions: Compound concentration 10.0 uM
[45] = target: Misshapen-like kinase 1 (Homo sapiens) (UniProt Q8N4C8); conditions: Compound concentration 1000.0 nM

Chain of Ephrin type-B receptor 6 (Homo sapiens) (O15197 whole entry): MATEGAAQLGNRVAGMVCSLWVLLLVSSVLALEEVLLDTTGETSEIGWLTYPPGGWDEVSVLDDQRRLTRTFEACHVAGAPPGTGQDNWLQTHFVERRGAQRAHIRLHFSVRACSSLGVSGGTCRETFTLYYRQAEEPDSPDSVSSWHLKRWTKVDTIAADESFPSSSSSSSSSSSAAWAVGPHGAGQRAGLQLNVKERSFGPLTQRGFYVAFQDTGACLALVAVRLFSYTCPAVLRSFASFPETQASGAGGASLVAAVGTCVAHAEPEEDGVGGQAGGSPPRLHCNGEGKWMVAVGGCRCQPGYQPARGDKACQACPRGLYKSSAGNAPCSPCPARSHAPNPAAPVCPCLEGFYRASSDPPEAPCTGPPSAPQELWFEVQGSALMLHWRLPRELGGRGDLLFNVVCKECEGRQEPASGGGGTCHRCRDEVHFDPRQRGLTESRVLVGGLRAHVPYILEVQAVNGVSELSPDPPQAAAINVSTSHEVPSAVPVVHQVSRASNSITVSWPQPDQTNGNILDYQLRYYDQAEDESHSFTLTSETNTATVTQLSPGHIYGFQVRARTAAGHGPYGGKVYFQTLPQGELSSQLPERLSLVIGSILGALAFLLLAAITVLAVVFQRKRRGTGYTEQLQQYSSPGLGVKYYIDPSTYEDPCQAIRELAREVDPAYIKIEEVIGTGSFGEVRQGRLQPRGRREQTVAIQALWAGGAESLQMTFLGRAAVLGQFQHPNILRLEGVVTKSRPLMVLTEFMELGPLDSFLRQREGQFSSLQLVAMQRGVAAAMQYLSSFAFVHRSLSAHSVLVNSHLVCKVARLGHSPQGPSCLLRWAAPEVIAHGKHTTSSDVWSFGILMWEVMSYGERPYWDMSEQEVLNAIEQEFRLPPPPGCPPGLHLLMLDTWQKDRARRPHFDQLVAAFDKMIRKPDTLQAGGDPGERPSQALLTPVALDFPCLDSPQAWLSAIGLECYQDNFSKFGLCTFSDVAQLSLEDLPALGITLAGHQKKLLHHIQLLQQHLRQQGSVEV
Chain of Ribosomal protein S6 kinase alpha-3 (Homo sapiens) (P51812 whole entry): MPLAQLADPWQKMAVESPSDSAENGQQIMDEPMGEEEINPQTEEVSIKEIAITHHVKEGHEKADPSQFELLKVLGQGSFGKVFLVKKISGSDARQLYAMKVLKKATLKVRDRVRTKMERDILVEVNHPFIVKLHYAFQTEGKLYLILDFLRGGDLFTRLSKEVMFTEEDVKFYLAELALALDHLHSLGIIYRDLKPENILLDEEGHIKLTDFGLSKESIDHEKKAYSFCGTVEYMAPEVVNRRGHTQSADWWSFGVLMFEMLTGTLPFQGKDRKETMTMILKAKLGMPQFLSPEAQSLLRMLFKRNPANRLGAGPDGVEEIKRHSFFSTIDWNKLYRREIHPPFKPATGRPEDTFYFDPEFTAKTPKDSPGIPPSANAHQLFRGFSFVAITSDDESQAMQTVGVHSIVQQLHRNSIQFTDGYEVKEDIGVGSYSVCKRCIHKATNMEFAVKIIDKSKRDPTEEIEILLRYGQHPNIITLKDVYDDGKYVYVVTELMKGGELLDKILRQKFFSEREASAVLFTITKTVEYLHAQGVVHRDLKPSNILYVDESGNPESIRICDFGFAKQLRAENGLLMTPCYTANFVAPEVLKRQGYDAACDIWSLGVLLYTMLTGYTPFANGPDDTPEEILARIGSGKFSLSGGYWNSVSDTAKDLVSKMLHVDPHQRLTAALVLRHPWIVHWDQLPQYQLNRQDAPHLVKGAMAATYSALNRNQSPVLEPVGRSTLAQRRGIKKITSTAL
Chain of Mitogen-activated protein kinase kinase kinase 4 (Homo sapiens) (Q9Y6R4 whole entry): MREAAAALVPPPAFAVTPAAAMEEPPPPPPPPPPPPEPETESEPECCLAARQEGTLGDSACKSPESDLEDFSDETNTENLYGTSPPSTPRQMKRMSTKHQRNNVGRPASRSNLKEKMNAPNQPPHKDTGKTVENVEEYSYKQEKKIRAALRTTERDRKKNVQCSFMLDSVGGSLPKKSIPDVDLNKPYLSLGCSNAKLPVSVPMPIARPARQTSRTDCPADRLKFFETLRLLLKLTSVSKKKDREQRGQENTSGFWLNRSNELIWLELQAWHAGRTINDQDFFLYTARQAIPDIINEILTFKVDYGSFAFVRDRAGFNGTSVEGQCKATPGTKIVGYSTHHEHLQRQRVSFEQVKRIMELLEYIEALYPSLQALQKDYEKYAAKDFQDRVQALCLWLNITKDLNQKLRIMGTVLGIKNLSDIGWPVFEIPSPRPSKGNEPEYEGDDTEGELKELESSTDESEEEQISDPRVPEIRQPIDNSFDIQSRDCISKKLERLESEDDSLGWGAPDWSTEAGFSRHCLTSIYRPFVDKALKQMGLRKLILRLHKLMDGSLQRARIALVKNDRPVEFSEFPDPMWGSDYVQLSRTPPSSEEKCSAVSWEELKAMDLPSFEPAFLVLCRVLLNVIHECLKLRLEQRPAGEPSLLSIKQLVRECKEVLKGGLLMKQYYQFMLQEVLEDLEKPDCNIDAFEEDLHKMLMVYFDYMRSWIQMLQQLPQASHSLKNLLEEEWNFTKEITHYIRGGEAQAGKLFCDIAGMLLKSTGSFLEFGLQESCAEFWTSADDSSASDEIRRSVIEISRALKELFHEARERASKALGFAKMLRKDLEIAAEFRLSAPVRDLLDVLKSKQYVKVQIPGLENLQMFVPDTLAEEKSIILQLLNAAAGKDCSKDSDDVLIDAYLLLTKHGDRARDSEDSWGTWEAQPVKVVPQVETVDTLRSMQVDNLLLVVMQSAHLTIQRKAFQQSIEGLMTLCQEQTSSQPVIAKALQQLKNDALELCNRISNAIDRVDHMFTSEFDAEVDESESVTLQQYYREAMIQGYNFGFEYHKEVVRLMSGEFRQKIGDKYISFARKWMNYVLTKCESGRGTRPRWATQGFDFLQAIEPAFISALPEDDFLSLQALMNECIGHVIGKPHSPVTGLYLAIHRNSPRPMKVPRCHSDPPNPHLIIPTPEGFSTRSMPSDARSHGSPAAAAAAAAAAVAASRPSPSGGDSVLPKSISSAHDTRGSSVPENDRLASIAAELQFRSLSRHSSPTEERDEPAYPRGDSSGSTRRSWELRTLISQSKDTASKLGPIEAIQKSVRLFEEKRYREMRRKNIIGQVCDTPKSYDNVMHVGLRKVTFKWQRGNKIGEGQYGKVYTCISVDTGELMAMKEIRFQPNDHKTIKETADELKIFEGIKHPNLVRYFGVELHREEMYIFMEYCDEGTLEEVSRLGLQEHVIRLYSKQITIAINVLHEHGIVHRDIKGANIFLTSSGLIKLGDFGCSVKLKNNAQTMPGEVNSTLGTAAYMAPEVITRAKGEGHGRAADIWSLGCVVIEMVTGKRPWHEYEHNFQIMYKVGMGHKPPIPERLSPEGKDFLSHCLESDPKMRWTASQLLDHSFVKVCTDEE
Chain of Ephrin type-B receptor 1 (Homo sapiens) (P54762 whole entry): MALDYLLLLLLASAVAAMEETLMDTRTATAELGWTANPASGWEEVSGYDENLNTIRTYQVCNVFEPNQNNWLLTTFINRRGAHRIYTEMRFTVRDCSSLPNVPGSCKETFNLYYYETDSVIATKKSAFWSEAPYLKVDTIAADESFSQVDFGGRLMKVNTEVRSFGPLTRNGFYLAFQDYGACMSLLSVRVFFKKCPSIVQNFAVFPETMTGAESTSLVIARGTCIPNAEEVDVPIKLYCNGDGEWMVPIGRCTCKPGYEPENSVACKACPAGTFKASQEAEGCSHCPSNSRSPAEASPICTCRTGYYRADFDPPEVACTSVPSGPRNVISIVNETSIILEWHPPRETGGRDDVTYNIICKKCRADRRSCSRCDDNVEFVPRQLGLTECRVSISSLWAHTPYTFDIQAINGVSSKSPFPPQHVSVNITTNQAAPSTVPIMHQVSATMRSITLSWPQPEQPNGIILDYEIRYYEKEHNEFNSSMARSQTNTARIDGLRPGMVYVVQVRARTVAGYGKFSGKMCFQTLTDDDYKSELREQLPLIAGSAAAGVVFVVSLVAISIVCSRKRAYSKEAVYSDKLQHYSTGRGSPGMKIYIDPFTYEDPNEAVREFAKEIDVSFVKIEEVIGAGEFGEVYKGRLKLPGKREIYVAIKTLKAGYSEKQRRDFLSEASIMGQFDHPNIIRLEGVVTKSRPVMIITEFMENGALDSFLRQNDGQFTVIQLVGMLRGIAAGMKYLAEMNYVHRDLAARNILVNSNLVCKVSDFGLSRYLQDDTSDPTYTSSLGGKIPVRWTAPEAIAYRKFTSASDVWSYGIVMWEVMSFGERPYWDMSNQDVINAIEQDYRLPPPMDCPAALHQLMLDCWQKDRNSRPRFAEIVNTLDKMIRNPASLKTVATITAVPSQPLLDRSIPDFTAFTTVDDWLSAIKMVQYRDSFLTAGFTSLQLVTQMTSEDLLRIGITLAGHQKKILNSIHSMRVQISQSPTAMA
Chain of RAC-gamma serine/threonine-protein kinase (Homo sapiens) (Q9Y243 whole entry): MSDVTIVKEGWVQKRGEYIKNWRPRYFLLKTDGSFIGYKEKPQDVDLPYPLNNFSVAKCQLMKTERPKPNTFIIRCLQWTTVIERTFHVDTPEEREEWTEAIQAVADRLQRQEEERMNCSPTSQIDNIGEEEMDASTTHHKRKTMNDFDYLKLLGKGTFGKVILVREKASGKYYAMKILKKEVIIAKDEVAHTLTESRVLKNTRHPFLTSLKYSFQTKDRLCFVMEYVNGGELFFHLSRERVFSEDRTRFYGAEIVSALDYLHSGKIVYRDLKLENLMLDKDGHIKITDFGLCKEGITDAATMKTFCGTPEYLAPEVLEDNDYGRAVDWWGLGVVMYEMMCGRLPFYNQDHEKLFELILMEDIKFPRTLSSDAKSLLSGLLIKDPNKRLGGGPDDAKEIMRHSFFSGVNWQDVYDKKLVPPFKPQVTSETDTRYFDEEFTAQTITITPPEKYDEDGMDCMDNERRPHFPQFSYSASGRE

CO[C@@H](C)c1c(Nc2ccc([C@H](N(C)C(=O)C3CCS(=O)(=O)CC3)C(F)(F)F)cc2)cnc2cc(Cl)nn12 [NVS-MALT1]
inactive: residual activity [1] 100% | residual activity [2] 86% | residual activity [3] 89% | residual activity [4] 92% | residual activity [5] 76% | residual activity [6] 85% | residual activity [7] 100% | residual activity [8] 92% | inhibition [9] -6.69% | residual activity [10] 90% | residual activity [11] 100% | residual activity [12] 89% | residual activity [13] 100% | residual activity [14] 99% | residual activity [15] 88% | inhibition [16] 12.5% | residual activity [17] 86% | residual activity [18] 86% | inhibition [19] 4.1% | residual activity [20] 87% | residual activity [21] 91% | residual activity [22] 82% | residual activity [23] 100% | residual activity [24] 69% | residual activity [25] 88% | residual activity [26] 87% | residual activity [27] 89% | residual activity [28] 100% | residual activity [29] 100% | residual activity [30] 79% | residual activity [31] 100% | residual activity [32] 100% | residual activity [33] 91% | residual activity [34] 100% | residual activity [35] 96% | residual activity [36] 100% | residual activity [37] 100% | residual activity [38] 100% | residual activity [39] 96% | residual activity [40] 100% | residual activity [41] 75% | residual activity [42] 96% | residual activity [43] 90% | inhibition [44] 6.13% | residual activity [45] 100%

CO[C@@H](C)c1c(Nc2ccc([C@@H](N(C)C(=O)C3CCS(=O)(=O)CC3)C(F)(F)F)cc2)cnc2cc(Cl)nn12 [NVS-MALT1-C]
inactive: residual activity [1] 100% | residual activity [2] 92% | residual activity [3] 95% | residual activity [4] 100% | residual activity [5] 100% | residual activity [6] 92% | residual activity [7] 100% | residual activity [8] 100% | inhibition [9] 3.2% | residual activity [10] 95% | residual activity [11] 99% | residual activity [12] 89% | residual activity [13] 65% | residual activity [14] 99% | residual activity [15] 89% | inhibition [16] 11.4% | residual activity [17] 100% | residual activity [18] 94% | inhibition [19] -4.3% | residual activity [20] 95% | residual activity [21] 77% | residual activity [22] 100% | residual activity [23] 100% | residual activity [24] 81% | residual activity [25] 100% | residual activity [26] 100% | residual activity [27] 95% | residual activity [28] 98% | residual activity [29] 100% | residual activity [30] 85% | residual activity [31] 100% | residual activity [32] 100% | residual activity [33] 95% | residual activity [34] 100% | residual activity [35] 78% | residual activity [36] 94% | residual activity [37] 94% | residual activity [38] 84% | residual activity [39] 95% | residual activity [40] 93% | residual activity [41] 100% | residual activity [42] 85% | residual activity [43] 100% | inhibition [44] 6.39% | residual activity [45] 100%

— ChEMBL document CHEMBL4507320, “Data for DCP probe NVS-MALT1” (2021)
